Experimental data reported in ChEMBL document CHEMBL2380227, “Ginkgetin induces apoptosis via activation of caspase and inhibition of survival genes in PC-3 prostate cancer cells” (Bioorg Med Chem Lett, 2013).
The source made the active and inactive calls.

Key:
PC-3 [1] = assay: Induction of apoptosis in human PC3 cells assessed as supression of Cyclin-D1 mRNA expression at 15 to 30 uM after 24 hrs by RT-PCR analysis; assay type: functional, cell-based
PC-3 [2] = assay: Induction of apoptosis in human PC3 cells assessed as supression of Bcl-2 expression at 15 to 30 uM after 24 hrs by Western blotting; assay type: functional, cell-based
PC-3 [3] = assay: Induction of apoptosis in human PC3 cells assessed as supression of Bcl-2 mRNA expression at 15 to 30 uM after 24 hrs by RT-PCR analysis; assay type: functional, cell-based
PC-3 [4] = assay: Cell cycle arrest in human PC3 cells assessed as sub-G1 accumulation at 30 uM after 24 hrs by propidium iodide staining-based flow cytometry in presence of Z-DEVD-FMK; assay type: functional
PC-3 [5] = assay: Induction of apoptosis in human PC3 cells assessed as increase in caspase-3 cleavage at 15 to 30 uM after 24 hrs by immunofluorescence assay relative to control; assay type: functional, cell-based
PC-3 [6] = assay: Cell cycle arrest in human PC3 cells assessed as sub-G1 accumulation after 24 hrs by propidium iodide staining-based flow cytometry; assay type: functional
PC-3 [7] = assay: Induction of apoptosis in human PC3 cells assessed as supression of Cyclin-D1 expression at 15 to 30 uM after 24 hrs by Western blotting; assay type: functional, cell-based
PC-3 [8] = assay: Induction of apoptosis in human PC3 cells assessed as apoptotic bodies at 15 to 30 uM after 24 hrs by inverted microscopy; assay type: functional, cell-based
PC-3 [9] = assay: Induction of apoptosis in human PC3 cells assessed as increase in PARP cleavage at 30 uM after 24 hrs by Western blotting in presence of Z-DEVD-FMK; assay type: functional, cell-based
PC-3 [10] = assay: Induction of apoptosis in human PC3 cells assessed as supression of Bcl-XL mRNA expression at 15 to 30 uM after 24 hrs by RT-PCR analysis; assay type: functional, cell-based
PC-3 [11] = assay: Induction of apoptosis in human PC3 cells assessed as increase in caspase-3 cleavage at 30 uM after 24 hrs by Western blotting in presence of Z-DEVD-FMK; assay type: functional, cell-based
PC-3 [12] = assay: Cytotoxicity against human PC3 cells after 24 hrs by MTT assay; assay type: functional, cell-based
PC-3 [13] = assay: Induction of apoptosis in human PC3 cells assessed as increase in PARP cleavage at 15 to 30 uM after 24 hrs by Western blotting; assay type: functional, cell-based
PC-3 [14] = assay: Induction of apoptosis in human PC3 cells assessed as supression of survivin expression at 15 to 30 uM after 24 hrs by Western blotting; assay type: functional, cell-based
PC-3 [15] = assay: Induction of apoptosis in human PC3 cells assessed as cell shrinkage at 15 to 30 uM after 24 hrs by inverted microscopy; assay type: functional, cell-based
PC-3 [16] = assay: Induction of apoptosis in human PC3 cells assessed as supression of survivin mRNA expression at 15 to 30 uM after 24 hrs by RT-PCR analysis; assay type: functional, cell-based
PC-3 [17] = assay: Induction of apoptosis in human PC3 cells assessed as supression of Bcl-XL expression at 15 to 30 uM after 24 hrs by Western blotting; assay type: functional, cell-based
PC-3 [18] = assay: Induction of apoptosis in human PC3 cells assessed as increase in caspase-3 cleavage at 15 to 30 uM after 24 hrs by Western blotting; assay type: functional, cell-based

Measured: Activity

COc1cc(O)c2c(=O)cc(-c3ccc(OC)c(-c4c(O)cc(O)c5c(=O)cc(-c6ccc(O)cc6)oc45)c3)oc2c1
active: PC-3 [1] | PC-3 [2] | PC-3 [3] | PC-3 [4] | PC-3 [5] | PC-3 [6] Dose-dependent effect | PC-3 [7] | PC-3 [8] | PC-3 [9] | PC-3 [10] | PC-3 [11] | PC-3 [12] Dose-dependent effect | PC-3 [13] | PC-3 [14] | PC-3 [15] | PC-3 [16] | PC-3 [17] | PC-3 [18]
